Measurements taken from patent publication US20170319552A1, “ATROPISOMERS OF TRIAZOLE DERIVATIVE” (ARDEA BIOSCIENCES, INC., priority 2016, published 2017).
Where two headings read alike, the source gives them in different places.

Experiments:
Solubility in water = format: physicochemical
[1] = In vivo human metabolism, plasma and urine pharmacokinetics after single oral dose of racemic Compound (I)
Description: Plasma samples were collected prior to dosing (within 30 minutes before dosing) and at the following timepoints: 0.5, 1, 1.5, 2, 3, 4, 5, 6, 8, 10, 12, and 24 hours postdose. Urine was also collected. […] The supernatant was diluted with injection solvent and analyzed by HPLC with tandem mass spectrometry (LC/MS/MS). […] The calibration curves were linear over the concentration range between 5.00 ng/mL and 2000 ng/mL with a lower limit of quantification (LLOQ) of 5.00 ng/mL.
Using the above data, the following plasma pharmacokinetic parameters were calculated using validated Phoenix WinNonlin, version 6.3 (Pharsight Corporation, Mountain View, Calif.) and are shown (geometric mean 95% CI) in tables 11, 12, and 13 below.
• Cmax: Maximum observed concentration (μg/mL) • Tmax: Time of occurrence of maximum observed concentration (hr) • AUC0-24: Area under plasma concentration-vs-time curve, from time 0 to 24 hours postdose (μg·hr/mL) • C24: Concentration 24 hours post dose (μg/mL) • t1/2: Apparent terminal half-life (hr)

human URAT1 transporter = target: T1, human URAT1 transporter (Homo sapiens, UniProt Q96S37); experiment: HEK293 hURAT1 stable cell-line uric acid uptake assay; format: cell-based; conditions: from IC50 values of table 5
T1 sequence (Q96S37 1-553): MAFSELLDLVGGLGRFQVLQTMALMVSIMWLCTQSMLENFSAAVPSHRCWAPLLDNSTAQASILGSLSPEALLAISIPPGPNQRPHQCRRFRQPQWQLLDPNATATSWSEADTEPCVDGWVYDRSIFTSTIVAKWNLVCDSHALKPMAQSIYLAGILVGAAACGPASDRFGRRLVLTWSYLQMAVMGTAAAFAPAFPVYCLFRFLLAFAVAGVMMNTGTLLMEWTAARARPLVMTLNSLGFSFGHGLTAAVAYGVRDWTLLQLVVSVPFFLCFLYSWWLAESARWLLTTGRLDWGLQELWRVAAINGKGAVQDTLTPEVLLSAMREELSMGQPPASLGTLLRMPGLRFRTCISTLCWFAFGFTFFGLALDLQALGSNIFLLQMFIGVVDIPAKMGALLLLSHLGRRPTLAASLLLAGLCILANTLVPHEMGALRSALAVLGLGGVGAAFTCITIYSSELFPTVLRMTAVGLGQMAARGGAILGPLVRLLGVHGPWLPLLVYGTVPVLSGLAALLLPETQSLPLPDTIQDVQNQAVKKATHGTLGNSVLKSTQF
Description: Generation and Screening of HEK293 Stable Cell Lines—HEK293 human embryonic kidney cells (ATCC #CRL-1573, Manassas, Va.) were propagated in EMEM tissue culture medium as described by ATCC in an atmosphere of 5% CO2 and 95% air. HEK293 cells were transfected with the expression plasmids described above (pCMV6-neo URAT1 or pCMV6-neo OAT4) using Lipofectamine 2000 (Invitrogen, Carlsbad, Calif.), according to the manufacturer's instructions. The lipid/DNA transfection mixture was removed after five hours on the cells and fresh growth medium was added. After another 24 hr the cells were split into 10 cm plates. The next day G418 (Gibco, Carlsbad, Calif.) selection agent was added to the growth medium at a final concentration of 0.5 mg/ml. Fresh G418-containing medium was added every three days until drug-resistant colonies were obtained and also when the majority of mock-transfected cells were dead. […]
HEK293 hURAT 1 Stable Cell-Line Uric Acid Uptake Assay—Cells were seeded onto 96-well poly-D-lysine coated tissue culture plates at a density of 1.25×10^5 cells per well and grown at 37° C. overnight. […] Cells were lysed by adding 150 μl of MicroScint 20 scintillation fluid (PerkinElmer) to each well and radioactivity was counted the following day using a Beckman TopCount plate reader.
Calculation—The IC50 was calculated using Sigmoidal Dose-Response Model using XLFIT(IDBS, Alameda, Calif.).

[2] = Atropisomer interconversion, thermal challenge in organic solvent (acetonitrile); format: physicochemical
Description: (§1) The individual atropisomers of Compound (I), atropisomer 1 and atropisomer 2 (elution order from normal-phase chiral chromatography) were exposed to various conditions, including thermal challenge in both organic and aqueous media and exposure to simulated biological conditions, to ascertain whether they readily interconvert.
Samples of each separate atropisomers were held at 60° C. for four days and then analyzed by high performance liquid chromatography (AGMS02 Agilent 1100) on a normal phase amylose-based chiral column (ChiralPak IA-3, 3 μm, 100×4.6 mm, column 244), using isocratic elution and UV detection at 226 nm (see example 1).

[3] = Atropisomer interconversion, thermal challenge in aqueous solvent (dilute sodium bicarbonate); format: physicochemical
Description: as §1
Atropisomer 1 was dissolved in dilute aqueous sodium bicarbonate solution. Atropisomer 2 was dissolved in dilute aqueous sodium bicarbonate solution. […] Samples of the resulting solutions were exposed to room temperature (rt), 60° C., and 100° C. for four days. After four days, the samples were concentrated to dryness (SpeedVac evaporator—DNA120, property H001630), redissolved in acetonitrile and analyzed by high performance liquid chromatography (AGMS02 Agilent 1100) on a normal phase amylose-based chiral column (ChiralPak IA-3, 3 μm, 100×4.6 mm, column 244), using isocratic elution and UV detection at 226 nm (see example 1). […] Sample chromatograms at t0, 60° C., and 100° C. after four days, are depicted in FIG. 3A, FIG. 3B and FIG. 3C respectively.

[4] = In vitro metabolism, incubations with human liver microsomes; format: in vitro ADME
Description: Human liver microsomes (0.5 mg/mL; mixed gender, ultrapooled, BD Biosciences, catalog number 452117) were incubated at 37±1° C. in 0.2 mL (final volume) of incubation mixtures containing potassium phosphate buffer (100 mM, pH7.4), MgCl2 (3 mM), NADPH (1 mM), and the atropisomers (1, 10, or 50 μM) (all experiments performed in duplicate). Stock solutions of atropisomers were prepared with DMSO at 100 mM. The final concentration of DMSO in the incubation was at or less than 0.05%. Reactions were initiated by addition of NADPH solution and terminated at predetermined time point (30 min) by addition of stop reagent (300 μL chilled acetonitrile containing 0.1 μM of 7-hydroxycoumarin as an internal standard). After incubation, microsomal proteins were precipitated by centrifugation at 3300×g for 15 min at 4° C. Supernatant fractions were analyzed by LC-MS/MS.
HPLC mass spectrometer system: An API4000 triple quadrupole mass spectrometer equipped with electrospray ionization ion source was used for quantitation and operated in positive mode. The HPLC system consisted of a CTC Analytics PAL autosampler, an Agilent 1100 series degasser (G1379A), and an Agilent 1100 series binary pump (G1312A). […]
The formation of M3, M3c, M4 and M6 from each atropisomer in liver microsomal and recombinant CYP incubations was determined, based on the peak area ratio of analyte over internal standard (IS)

[5] = plasma, geometric mean, single oral 400 mg racemic Compound (I), human
[6] = Plasma Concentration (Mean), single oral 400 mg racemic Compound (I), human
[7] = Urine PK Parameters (Geometric mean, CI 95%), single oral 400 mg racemic Compound (I), human

O=C(O)CSc1nnc(Br)n1-c1ccc(C2CC2)c2ccccc12 (racemic) [Compound (I), 2-(5-bromo-4-(4-cyclopropylnaphthalen-1-yl)-4H-1,2,4-triazol-3-ylthio)acetic acid]
Solubility in water (Solubility in water): low | concentration at 0.5 h ([1]; male, human, plasma, po, 400 mg, 0.5 hr postdose, single oral 400 mg Compound (I) racemic mixture, adult male subjects): 157 ng/mL | concentration at 1 h ([1]; male, human, plasma, po, 400 mg, 1 hr postdose, single oral 400 mg Compound (I) racemic mixture, adult male subjects): 3900 ng/mL | concentration at 1.5 h ([1]; male, human, plasma, po, 400 mg, 1.5 hr postdose, single oral 400 mg Compound (I) racemic mixture, adult male subjects): 7860 ng/mL | concentration at 2 h ([1]; male, human, plasma, po, 400 mg, 2 hr postdose, single oral 400 mg Compound (I) racemic mixture, adult male subjects): 9380 ng/mL | concentration at 3 hr ([1]; male, human, plasma, po, 400 mg, 3 hr postdose, single oral 400 mg Compound (I) racemic mixture, adult male subjects): 11400 ng/mL | concentration at 4 hr ([1]; male, human, plasma, po, 400 mg, 4 hr postdose, single oral 400 mg Compound (I) racemic mixture, adult male subjects): 9080 ng/mL | concentration at 5 hr ([1]; male, human, plasma, po, 400 mg, 5 hr postdose, single oral 400 mg Compound (I) racemic mixture, adult male subjects): 6980 ng/mL | concentration at 6 hr ([1]; male, human, plasma, po, 400 mg, 6 hr postdose, single oral 400 mg Compound (I) racemic mixture, adult male subjects): 3810 ng/mL | concentration at 8 hr ([1]; male, human, plasma, po, 400 mg, 8 hr postdose, single oral 400 mg Compound (I) racemic mixture, adult male subjects): 1530 ng/mL | concentration at 10 hr ([1]; male, human, plasma, po, 400 mg, 10 hr postdose, single oral 400 mg Compound (I) racemic mixture, adult male subjects): 815 ng/mL | concentration at 12 hr ([1]; male, human, plasma, po, 400 mg, 12 hr postdose, single oral 400 mg Compound (I) racemic mixture, adult male subjects): 503 ng/mL | concentration at 24 h ([1]; male, human, plasma, po, 400 mg, 24 hr postdose, single oral 400 mg Compound (I) racemic mixture, adult male subjects): 84 ng/mL | AUC(0-t) ([1]; male, human, plasma, po, 400 mg, Plasma Concentration (Mean), single oral 400 mg racemic Compound (I), human, read-out: AUC0-24): 54900 ng·h/mL | Cmax ([1]; male, human, plasma, po, 400 mg, Plasma Concentration (Mean), single oral 400 mg racemic Compound (I), human, read-out: Cmax): 13500 ng/mL | Cmax ([1]; male, human, plasma, po, 400 mg, plasma, geometric mean, single oral 400 mg racemic Compound (I), human, read-out: Cmax: Maximum observed concentration): 12800 ng/mL | half-life ([1]; male, human, plasma, po, 400 mg, plasma, geometric mean, single oral 400 mg racemic Compound (I), human, read-out: t1/2: Apparent terminal half-life (converted)): 4.18 h | concentration at 0 h ([1]; male, human, plasma, po, 400 mg, time 0 hr (prior to dosing), single oral 400 mg Compound (I) racemic mixture, adult male subjects): 0 ng/mL | Tmax ([1]; male, human, plasma, po, 400 mg, read-out: Tmax: Time of occurrence of maximum observed concentration): 3 h | AUC0-24: Area under plasma concentration-vs-time curve, from time 0 to 24 hours postdose [1, 5]: 52.9 µg·h/mL

O=C(O)CSc1nnc(Br)n1-c1ccc(C2CC2)c2ccccc12 (single isomer, unassigned) [Atropisomer 2, (+)-2-(5-bromo-4-(4-cyclopropylnaphthalen-1-yl)-4H-1,2,4-triazol-3-ylthio)acetic acid]
Greater inhibition of URAT1 than atropisomer 1 (human URAT1 transporter): approximately 4 fold | Mean plasma concentration ([1]; 0.5 hr postdose, single oral 400 mg Compound (I) racemic mixture, adult male subjects): 108 ng/mL | Mean plasma concentration ([1]; 1 hr postdose, single oral 400 mg Compound (I) racemic mixture, adult male subjects): 2573 ng/mL | Mean plasma concentration ([1]; 1.5 hr postdose, single oral 400 mg Compound (I) racemic mixture, adult male subjects): 4975 ng/mL | Mean plasma concentration ([1]; 2 hr postdose, single oral 400 mg Compound (I) racemic mixture, adult male subjects): 5765 ng/mL | Mean plasma concentration ([1]; 3 hr postdose, single oral 400 mg Compound (I) racemic mixture, adult male subjects): 6921 ng/mL | Mean plasma concentration ([1]; 4 hr postdose, single oral 400 mg Compound (I) racemic mixture, adult male subjects): 5577 ng/mL | Mean plasma concentration ([1]; 5 hr postdose, single oral 400 mg Compound (I) racemic mixture, adult male subjects): 4314 ng/mL | Mean plasma concentration ([1]; 6 hr postdose, single oral 400 mg Compound (I) racemic mixture, adult male subjects): 2322 ng/mL | Mean plasma concentration ([1]; 8 hr postdose, single oral 400 mg Compound (I) racemic mixture, adult male subjects): 918 ng/mL | Mean plasma concentration ([1]; 10 hr postdose, single oral 400 mg Compound (I) racemic mixture, adult male subjects): 495 ng/mL | Mean plasma concentration ([1]; 12 hr postdose, single oral 400 mg Compound (I) racemic mixture, adult male subjects): 309 ng/mL | Mean plasma concentration ([1]; 24 hr postdose, single oral 400 mg Compound (I) racemic mixture, adult male subjects): 63 ng/mL | AUC0-24 [1, 6]: 33800 ng·h/mL | Cmax [1, 6]: 8200 ng/mL | Ae0-24 [1, 7]: 101 mg | CLR0-24 [1, 7]: 51.6 mL/min | AUC0-24: Area under plasma concentration-vs-time curve, from time 0 to 24 hours postdose [1, 5]: 32.7 µg·h/mL | C24 h: Concentration 24 hours post dose [1, 5]: 50.8 ng/mL | Cmax: Maximum observed concentration [1, 5]: 7920 ng/mL | t1/2: Apparent terminal half-life [1, 5]: 4.67 h | Tmax: Time of occurrence of maximum observed concentration ([1]; plasma, single oral 400 mg racemic Compound (I), human): 3.00 h | Mean plasma concentration ([1]; time 0 hr (prior to dosing), single oral 400 mg Compound (I) racemic mixture, adult male subjects): 0 ng/mL | % Atropisomer 1 ([2]; acetonitrile 0.25 mg/mL, t0): 1.0% | % Atropisomer 2 ([2]; acetonitrile 0.25 mg/mL, t0): 99.0% | % Atropisomer 1 ([2]; acetonitrile, 60° C. 4 days): 1.0% | % Atropisomer 2 ([2]; acetonitrile, 60° C. 4 days): 99.0% | % Atropisomer 1 ([3]; 60° C. 4 days): 0.4% | % Atropisomer 2 ([3]; 60° C. 4 days): 99.6% | % Atropisomer 1 ([3]; 100° C. 4 days): 0.6% | % Atropisomer 2 ([3]; 100° C. 4 days): 99.4% | % Atropisomer 1 ([3]; rt, 4 days): 0.4% | % Atropisomer 2 ([3]; rt, 4 days): 99.6% | % Atropisomer 1 ([3]; t0 (control)): 0.4% | % Atropisomer 2 ([3]; t0 (control)): 99.6% | M3c formation [4]: only trace levels
